Key:
[1] = tested on: human peripheral blood mononuclear cells (PBMC); experiment: T-cell proliferation assay (BrdU ELISA), PBMC stimulated with SEB; assay type: cell-based; conditions: SEB (0.1 μg/ml); for inhibition at 0.03 µM: Homo sapiens, PBMC
[2] = tested on: human peripheral blood mononuclear cells (PBMC); experiment: T-cell proliferation assay (BrdU ELISA), PBMC stimulated with anti-CD3 mAb + anti-CD28 mAb; assay type: cell-based; conditions: anti-CD3 mAb (0.1 μg/ml)+anti-CD28 mAb (1 μg/ml); for inhibition at 0.03 µM: Homo sapiens, PBMC
[3] = Example 4, 200000 cells/well, HC 10 μM, ASM 30 nM, BETA 300 nM
[4] = Example 5, 100000 cells/well, HC 10 μM, ASM 30 nM, BETA 300 nM
[5] = Example 9, 200000 cells/well, DEX 300 nM, ASM 30 nM, BETA 300 nM
[6] = Example 10, 100000 cells/well, DEX 300 nM, ASM 30 nM, BETA 300 nM
[7] = Example 12, 100000 cells/well, DEX 300 nM, ASM 30 nM
[8] = Example 1, 200000 cells/well, HC 10 μM, ASM 30 nM, BETA 300 nM
[9] = Example 2, 100000 cells/well, HC 10 μM, ASM 30 nM, BETA 300 nM
[10] = Example 3, 50000 cells/well, HC 10 μM, ASM 30 nM, BETA 300 nM
[11] = Example 6, 200000 cells/well, DEX 300 nM, ASM 30 nM, BETA 300 nM
[12] = Example 7, 100000 cells/well, DEX 300 nM, ASM 30 nM, BETA 300 nM
[13] = Example 8, 50000 cells/well, DEX 300 nM, ASM 30 nM, BETA 300 nM
[14] = Example 11, 100000 cells/well, DEX 300 nM, ASM 30 nM
[15] = Example 22, 200000 cells/well, HC 10 μM, CsA 300 nM, BETA 300 nM, HC (10 μM)+CsA (30 nM), BETA (300 nM)+CsA (300 nM)
[16] = Example 26, 200000 cells/well, DEX 300 nM, CsA 300 nM, BETA 300 nM, DEX (300 nM)+CsA (30 nM), BETA (300 nM)+CsA (300 nM)
[17] = Example 13, 200000 cells/well, HC 10 μM, FK 30 nM, BETA 300 nM
[18] = Example 14, 100000 cells/well, HC 10 μM, FK 30 nM, BETA 300 nM
[19] = Example 15, 200000 cells/well, DEX 300 nM, FK 30 nM, BETA 300 nM
[20] = Example 16, 100000 cells/well, DEX 300 nM, FK 30 nM, BETA 300 nM
[21] = Example 17, 50000 cells/well, DEX 300 nM, FK 30 nM, BETA 300 nM
[22] = Example 19, 200000 cells/well, HC 10 μM, CsA 300 nM, BETA 300 nM, HC (10 μM)+CsA (30 nM), BETA (300 nM)+CsA (300 nM)
[23] = Example 20, 100000 cells/well, HC 10 μM, CsA 300 nM, BETA 300 nM, HC (10 μM)+CsA (30 nM), BETA (300 nM)+CsA (300 nM)
[24] = Example 21, 50000 cells/well, HC 10 μM, CsA 300 nM, BETA 300 nM, HC (10 μM)+CsA (30 nM), BETA (300 nM)+CsA (300 nM)
[25] = Example 23, 200000 cells/well, DEX 300 nM, CsA 300 nM, BETA 300 nM, DEX (300 nM)+CsA (30 nM), BETA (300 nM)+CsA (300 nM)
[26] = Example 24, 100000 cells/well, DEX 300 nM, CsA 300 nM, BETA 300 nM, DEX (300 nM)+CsA (30 nM), BETA (300 nM)+CsA (300 nM)
[27] = Example 25, 50000 cells/well, DEX 300 nM, CsA 300 nM, BETA 300 nM, DEX (300 nM)+CsA (30 nM), BETA (300 nM)+CsA (300 nM)
[28] = Example 18, 100000 cells/well, DEX 300 nM, FK 30 nM

With CC[C@@H]1/C=C(\C)C[C@H](C)C[C@H](OC)[C@H]2O[C@@](O)(C(=O)C(=O)N3CCCC[C@H]3C(=O)O[C@H](/C(C)=C/[C@@H]3CC[C@H](Cl)[C@H](OC)C3)[C@H](C)[C@@H](O)CC1=O)[C@H](C)C[C@@H]2OC [ASM, 33-epi-33-chloro-FR 520] the “Normalized OD (% STIM-C)” value [1, 3] was 95.8 % STIM-C, the OD [1, 3] was 1.015 and the “Normalized OD (% STIM-C)” value [1, 4] was 78.1 % STIM-C. The OD [1, 4] was 0.665, the “Normalized OD (% STIM-C)” value [1, 5] was 83.1 % STIM-C and the OD [1, 5] was 0.752. For the same compound, the “Normalized OD (% STIM-C)” value [1, 6] was 67.3 % STIM-C, the OD [1, 6] was 0.660 and the “Normalized OD (% STIM-C)” value [1, 7] was 77.5 % STIM-C. The OD [1, 7] was 1.013, the inhibition at 0.03 µM [1, 4] was under 24% and the inhibition at 0.03 µM [1, 5] was under 19%. The inhibition at 0.03 µM [1, 6] was under 34%, the inhibition at 0.03 µM [1, 7] was under 24% and the “Normalized OD (% STIM-C)” value [2, 8] was 93.9 % STIM-C. For the same compound, the OD [2, 8] was 0.721, the “Normalized OD (% STIM-C)” value [2, 9] was 85.1 % STIM-C and the OD [2, 9] was 0.776. The “Normalized OD (% STIM-C)” value [2, 10] was 113.2 % STIM-C, the OD [2, 10] was 0.994 and the “Normalized OD (% STIM-C)” value [2, 11] was 98.0 % STIM-C. For the same compound, the OD [2, 11] was 0.772, the “Normalized OD (% STIM-C)” value [2, 12] was 87.4 % STIM-C and the OD [2, 12] was 0.734. The “Normalized OD (% STIM-C)” value [2, 13] was 86.2 % STIM-C, the OD [2, 13] was 0.908 and the “Normalized OD (% STIM-C)” value [2, 14] was 79.1 % STIM-C. It also gave an OD [2, 14] of 0.918, an inhibition at 0.03 µM [2, 8] of 6.7% and an inhibition at 0.03 µM [2, 9] of under 17%. The inhibition at 0.03 µM [2, 10] was -14.3%, the inhibition at 0.03 µM [2, 12] was under 25% and the inhibition at 0.03 µM [2, 13] was under 26%. It also gave an inhibition at 0.03 µM [2, 14] of under 25%.

CCCCC(=O)O[C@]1(C(=O)CO)[C@@H](C)C[C@H]2[C@@H]3CCC4=CC(=O)C=C[C@]4(C)[C@@]3(F)[C@@H](O)C[C@@]21C [BETA, betamethasone 17-valerate] was tested, and the “Normalized OD (% STIM-C)” value [1, 3] was 85.0 % STIM-C, the OD [1, 3] was 0.900 and the “Normalized OD (% STIM-C)” value [1, 4] was 117.6 % STIM-C. The OD [1, 4] was 1.001, the “Normalized OD (% STIM-C)” value [1, 5] was 99.7 % STIM-C and the OD [1, 5] was 0.902. For the same compound, the “Normalized OD (% STIM-C)” value [1, 6] was 97.4 % STIM-C, the OD [1, 6] was 0.955 and the “Normalized OD (% STIM-C)” value [1, 15] was 85.0 % STIM-C. The OD [1, 15] was 0.900, the “Normalized OD (% STIM-C)” value [1, 16] was 99.7 % STIM-C and the OD [1, 16] was 0.902. For the same compound, the “Normalized OD (% STIM-C)” value [2, 8] was 105.2 % STIM-C, the OD [2, 8] was 0.808 and the “Normalized OD (% STIM-C)” value [2, 9] was 87.3 % STIM-C. The OD [2, 9] was 0.796, the “Normalized OD (% STIM-C)” value [2, 10] was 99.4 % STIM-C and the OD [2, 10] was 0.873. The “Normalized OD (% STIM-C)” value [2, 11] was 89.2 % STIM-C, the OD [2, 11] was 0.703 and the “Normalized OD (% STIM-C)” value [2, 12] was 82.4 % STIM-C. The OD [2, 12] was 0.692, the “Normalized OD (% STIM-C)” value [2, 13] was 75.4 % STIM-C and the OD [2, 13] was 0.794. The “Normalized OD (% STIM-C)” value [2, 17] was 105.2 % STIM-C, the OD [2, 17] was 0.808 and the “Normalized OD (% STIM-C)” value [2, 18] was 87.3 % STIM-C. The OD [2, 18] was 0.796, the “Normalized OD (% STIM-C)” value [2, 19] was 89.2 % STIM-C and the OD [2, 19] was 0.703. The “Normalized OD (% STIM-C)” value [2, 20] was 82.4 % STIM-C, the OD [2, 20] was 0.692 and the “Normalized OD (% STIM-C)” value [2, 21] was 75.4 % STIM-C. The OD [2, 21] was 0.794, the “Normalized OD (% STIM-C)” value [2, 22] was 105.2 % STIM-C and the OD [2, 22] was 0.808. For the same compound, the “Normalized OD (% STIM-C)” value [2, 23] was 87.3 % STIM-C, the OD [2, 23] was 0.796 and the “Normalized OD (% STIM-C)” value [2, 24] was 99.4 % STIM-C. The OD [2, 24] was 0.873, the “Normalized OD (% STIM-C)” value [2, 25] was 89.2 % STIM-C and the OD [2, 25] was 0.703. For the same compound, the “Normalized OD (% STIM-C)” value [2, 26] was 82.4 % STIM-C, the OD [2, 26] was 0.692 and the “Normalized OD (% STIM-C)” value [2, 27] was 75.4 % STIM-C. The OD [2, 27] was 0.794.

C=CC[C@@H]1/C=C(\C)C[C@H](C)C[C@H](OC)[C@H]2O[C@@](O)(C(=O)C(=O)N3CCCC[C@H]3C(=O)O[C@H](/C(C)=C/[C@@H]3CC[C@@H](O)[C@H](OC)C3)[C@H](C)[C@@H](O)CC1=O)[C@H](C)C[C@@H]2OC [FK, tacrolimus] was tested, and the “Normalized OD (% STIM-C)” value [2, 17] was 119.9 % STIM-C, the OD [2, 17] was 0.921 and the “Normalized OD (% STIM-C)” value [2, 18] was 72.6 % STIM-C. For the same compound, the OD [2, 18] was 0.662, the “Normalized OD (% STIM-C)” value [2, 19] was 100.9 % STIM-C and the OD [2, 19] was 0.795. The “Normalized OD (% STIM-C)” value [2, 20] was 96.3 % STIM-C, the OD [2, 20] was 0.809 and the “Normalized OD (% STIM-C)” value [2, 21] was 79.6 % STIM-C. For the same compound, the OD [2, 21] was 0.838, the “Normalized OD (% STIM-C)” value [2, 28] was 78.0 % STIM-C and the OD [2, 28] was 0.905. It also gave an inhibition at 0.03 µM [2, 17] of -21.9%, an inhibition at 0.03 µM [2, 18] of under 31% and an inhibition at 0.03 µM [2, 21] of under 26%. The inhibition at 0.03 µM [2, 28] was under 25%.

Source: patent US20060083754A1, “Pharmaceutical combinations comprising corticoids and immunosuppressants for treating corticoid- and/or calcineurin inhibitors-resistant diseases” (priority 2003, published 2006)
